Biological target: T1, Interleukin-1 receptor-associated kinase 4 (Homo sapiens, UniProt Q9NWZ3)
T1 sequence (Q9NWZ3 whole entry): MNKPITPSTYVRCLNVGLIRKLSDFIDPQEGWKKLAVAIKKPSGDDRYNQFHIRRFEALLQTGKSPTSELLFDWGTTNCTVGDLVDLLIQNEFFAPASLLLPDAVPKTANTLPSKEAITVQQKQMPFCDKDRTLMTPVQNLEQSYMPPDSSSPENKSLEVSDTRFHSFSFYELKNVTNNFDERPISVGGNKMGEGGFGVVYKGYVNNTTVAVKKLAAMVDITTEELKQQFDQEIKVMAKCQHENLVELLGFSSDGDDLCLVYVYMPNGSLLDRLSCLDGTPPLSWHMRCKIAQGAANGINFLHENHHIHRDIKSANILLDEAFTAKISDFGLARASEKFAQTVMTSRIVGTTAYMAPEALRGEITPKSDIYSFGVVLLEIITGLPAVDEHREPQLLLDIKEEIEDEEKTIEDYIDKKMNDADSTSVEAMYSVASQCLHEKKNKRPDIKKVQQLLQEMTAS
Experiment: IMAP technology (Molecular Devices): A 20 ul reaction mixture contains 10 mM TriHCl, pH 7.2, 0.5 nM GST tagged IRAK4 (SignalChem), 100 nM fluorescent peptide substrate (RP7030, Molecular Devices), 100 uM ATP, 1 mM DTT, 1 mM MgCl2, and 0.01% Tween 20. The reaction is initiated by the addition of ATP. After incubation for 30 minutes at 25° C., 60 ul of Progressive IMAP Reagent (Molecular Devices) is added to stop the reaction. Change in RP7030's FP is determined by a FP reader (Analyst HT, LJL BioSystems).

IC50	SMILES
0.027 µM	CC(C)(C)OC(=O)N1CC2(CCN(c3nc(N[C@@H]4CCCNC4)c(-c4nc5ccccc5s4)c(=O)[nH]3)CC2)C1
0.554 µM	Cc1csc(-c2c(N[C@@H]3CCCNC3)nc(N3CCOCC3)[nH]c2=O)n1
0.38 µM	O=c1[nH]c(C2CCOCC2)nc(N[C@@H]2CCCNC2)c1-c1nc2ccccc2s1
0.45 µM	CC(=O)N1CCC(c2nc(N[C@@H]3CCCNC3)c(-c3nc4ccccc4s3)c(=O)[nH]2)CC1
0.07 µM	N[C@H]1CCCC[C@H]1Nc1cccc2sc(-c3c(N[C@@H]4CCCNC4)nc(N4CCOCC4)[nH]c3=O)nc12 (racemic)
0.27 µM	COC(=O)N1CCC(c2nc(N[C@@H]3CCCNC3)c(-c3nc4ccccc4s3)c(=O)[nH]2)CC1
0.002 µM	N[C@H]1CCCC[C@H]1Nc1cccc2sc(-c3c(N[C@@H]4CCCNC4)nc(N4CCOCC4)[nH]c3=O)nc12
0.0275 µM	O=c1[nH]c(N2CCc3ccccc3C2)nc(N[C@@H]2C[C@H](CO)[C@@H](O)[C@H]2O)c1-c1nc2ccccc2s1
0.13 µM	CC1(Nc2nc(N3CCOCC3)[nH]c(=O)c2-c2ccc3ccccc3n2)CCCNC1 (stereo unspecified)
0.0069 µM	CS(=O)(=O)N1CCN(c2nc(N[C@@H]3CCCNC3)c(-c3nc4c(C5CC5)nccc4s3)c(=O)[nH]2)CC1
0.04 µM	O=c1[nH]c(N2CCC3(CC2)CNC3)nc(N[C@@H]2CCCNC2)c1-c1nc2ccccc2s1
0.69 µM	CN1CCC(c2nc(N[C@@H]3CCCNC3)c(-c3nc4ccccc4s3)c(=O)[nH]2)CC1
0.214 µM	Cc1cccc(-c2c(N[C@@H]3C[C@H](CO)[C@@H](O)[C@H]3O)nc(N3CCOCC3)[nH]c2=O)n1
0.057 µM	O=c1[nH]c(N2CCc3ccccc3C2)nc(N[C@@H]2CCCNC2)c1-c1nc(-c2ccc(F)cc2)cs1
1.69 µM	CC1(Nc2nc(N[C@@H]3C[C@H](CO)[C@@H](O)[C@H]3O)c(-c3nc4ccccc4s3)c(=O)[nH]2)CCC1
0.049 µM	Nc1ccc2c(c1)CN(c1nc(N[C@@H]3CCCNC3)c(-c3nc4ccccc4s3)c(=O)[nH]1)CC2

Source: ChEMBL document CHEMBL3886492, “Aminopyrimidinones as interleukin receptor-associated kinase inhibitors” (2015)
